# Data: patent publication US8889732B2, “Fused heterocyclic compounds and thrombopoietin receptor activators” (Nissan Chemical Industries, Ltd., priority 2009, dated 2014)
# Target: T1, human thrombopoietin receptor (c-mpl) (Homo sapiens, UniProt P40238)
# T1 construct: expressed in transfected cells
# T1 sequence (P40238 26-635): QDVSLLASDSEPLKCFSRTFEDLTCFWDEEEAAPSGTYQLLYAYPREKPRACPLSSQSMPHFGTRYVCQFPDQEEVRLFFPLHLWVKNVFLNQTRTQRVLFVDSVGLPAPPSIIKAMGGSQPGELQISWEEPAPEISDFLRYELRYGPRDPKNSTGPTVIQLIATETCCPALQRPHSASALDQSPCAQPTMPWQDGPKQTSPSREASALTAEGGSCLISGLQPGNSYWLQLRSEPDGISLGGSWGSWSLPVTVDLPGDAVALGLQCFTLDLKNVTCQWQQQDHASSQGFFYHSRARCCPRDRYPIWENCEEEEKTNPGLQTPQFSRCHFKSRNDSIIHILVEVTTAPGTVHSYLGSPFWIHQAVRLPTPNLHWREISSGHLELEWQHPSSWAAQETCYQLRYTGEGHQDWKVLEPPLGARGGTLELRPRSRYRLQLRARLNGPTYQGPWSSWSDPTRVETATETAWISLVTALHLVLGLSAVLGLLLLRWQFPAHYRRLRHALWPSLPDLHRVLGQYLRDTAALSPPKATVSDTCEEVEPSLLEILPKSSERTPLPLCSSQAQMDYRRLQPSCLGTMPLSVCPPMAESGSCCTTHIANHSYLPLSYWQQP
# Assay: Stimulation of proliferation of thrombopoietin-dependent cell line UT7/EPO-mpl (WST-8)
# Format: cell-based
# Settings: concentration yielding growth rate corresponding to 50% of growth of UT-7/EPO-mpl in the presence of 10 ng/mL TPO; 4 days incubation, WST-8
# Procedure: The responses of thrombopoietin receptor to the compounds of Synthetic Examples of the present invention were assayed using a human leukemic cell line, UT7/EPO-mpl.
# UT7/EPO-mpl is a stable transformed cell line obtained by introducing into human leukemic cell line UT7/EPO a vector that induces expression of human thrombopoietin receptor (c-mpl) under control of cytomegalovirus immediate-early promoter by the method of Takatoku et al. (J. Biol. Chem., 272:7259-7263 (1997)). […] These two cell lines were subcultured in IMDM (Invitrogen) containing 10% fetal bovine serum (Thermo Electron or BioWest) using a CO2 incubator (5% CO2, 37° C.).
# The subcultured cells described above were washed twice with PBS and suspended in IMDM containing 10% fetal bovine serum at a cell density of 6×10^4 cells/ml. The cell suspension was transferred to a 96-well tissue culture plate (CORNING) in 100-μl aliquots. Then either thrombopoietin (Pepro Tech EC) or the compound of Synthetic Examples dissolved in dimethyl sulfoxide were diluted 83-fold with IMDM containing 10% fetal bovine serum and added to the aforementioned cell suspension in 20-μl aliquots. The cell suspension was incubated in a CO2 incubator (5% CO2, 37° C.) for 4 days. Cell proliferation was assayed using WST-8 reagent (Kishida Chemical Co., Ltd.) according to instructions by the manufacturer. A 10-μl aliquot of 5 mM WST-8 reagent solution was added to each well of the tissue culture plate, and the plate was incubated at 37° C. for 4 hours. The formazan pigment generated was detected by measuring the absorbance at 450 nm with a 96-well microplate reader (Nihon Molecular Devices, Spectramax 190).
row,Structure (SMILES),EC50 [nM]
1,C/C(=N\NC(=O)c1ccc(C(=O)NCc2ccncc2)s1)c1nn(C)c(-c2ccc3c(c2)CCC3)c1O [compound 1],1.55
2,C/C(=N\NC(=O)c1ccc(C(=O)NCCc2ccncc2)s1)c1nn(C)c(-c2ccc3c(c2)CCC3)c1O [compound 2],3.4
3,CCN(CC)C(=O)c1ccc(C(=O)N/N=C(\C)c2nn(C)c(-c3ccc4c(c3)CCC4)c2O)s1 [compound 3],70.3
4,C/C(=N\NC(=O)c1ccc(C(=O)N2CCCC2)s1)c1nn(C)c(-c2ccc3c(c2)CCC3)c1O [compound 4],11.1
5,COC(=O)c1ccc(C(=O)N/N=C(\C)c2nn(C)c(-c3ccc4c(c3)CCC4)c2O)cc1[N+](=O)[O-] [compound 5],11.7
6,COC(=O)c1ccc(C(=O)N/N=C(\C)c2nn(C)c(-c3ccc4c(c3)CCC4)c2O)s1 [compound 6],18.9
7,COC(=O)c1ccc(C(=O)N/N=C(\C)c2nn(C)c(-c3ccc4c(c3)CCC4)c2O)cc1 [compound 7],43
8,COC(=O)C1CCN(C(=S)N/N=C(\C)c2nn(C)c(-c3ccc4c(c3)CCC4)c2O)CC1 [compound 8],99.4
9,C/C(=N\NC(=S)N1CCC(C(=O)O)CC1)c1nn(C)c(-c2ccc3c(c2)CCC3)c1O [compound 9],76.5
10,C/C(=N\NC(=O)c1ccc(C(=O)O)s1)c1nn(C)c(-c2ccc3c(c2)CCC3)c1O [compound 10],45.5
11,C/C(=N\NC(=O)c1ccc(C(=O)O)cc1)c1nn(C)c(-c2ccc3c(c2)CCC3)c1O [compound 11],57.6
12,C/C(=N\NC(=O)c1ccc(C(=O)O)c([N+](=O)[O-])c1)c1nn(C)c(-c2ccc3c(c2)CCC3)c1O [compound 12],1.73
13,C/C(=N\NC(=S)Nc1ccc(C(=O)O)cc1)c1nn(C)c(-c2ccc3c(c2)CCC3)c1O [compound 13],59.2
14,C/C(=N\NC(=S)Nc1cccc(C(=O)O)c1)c1nn(C)c(-c2ccc3c(c2)CCC3)c1O [compound 14],22.7
15,C/C(=N\NC(=S)Nc1ccc(C(=O)O)c(Cl)c1)c1nn(C)c(-c2ccc3c(c2)CCC3)c1O [compound 15],12.8
16,C/C(=N\NC(=O)c1ccc(C(=O)NCCc2ccncc2)s1)c1csc(-c2ccc3c(c2)CCCC3)c1O [compound 16],0.496
17,C/C(=N\NC(=S)Nc1cccc(C(=O)O)c1)c1csc(-c2ccc3c(c2)CCCC3)c1O [compound 17],49.4
18,C/C(=N\NC(=O)c1ccc(C(=O)NCc2ccncc2)s1)c1csc(-c2ccc3c(c2)CCO3)c1O [compound 18],5.4
19,C/C(=N\NC(=O)c1ccc(C(=O)NCCc2ccncc2)s1)c1csc(-c2ccc3c(c2)CCO3)c1O [compound 19],30
20,C/C(=N\NC(=O)c1ccc(C(=O)N2CCCC2)s1)c1csc(-c2ccc3c(c2)CCO3)c1O [compound 21],99.7
21,C/C(=N\NC(=O)c1ccc(C(=O)NCc2ccncc2)s1)c1csc(-c2ccc3c(c2)CCC3)c1O [compound 25],0.523
22,C/C(=N\NC(=O)c1ccc(C(=O)NCCc2ccncc2)s1)c1csc(-c2ccc3c(c2)CCC3)c1O [compound 26],0.867
23,CCN(CC)C(=O)c1ccc(C(=O)N/N=C(\C)c2csc(-c3ccc4c(c3)CCC4)c2O)s1 [compound 27],6.44
24,C/C(=N\NC(=O)c1ccc(C(=O)N2CCCC2)s1)c1csc(-c2ccc3c(c2)CCC3)c1O [compound 28],5.84
25,COC(=O)c1ccc(C(=O)N/N=C(\C)c2csc(-c3ccc4c(c3)CCC4)c2O)cc1[N+](=O)[O-] [compound 29],12.9
26,COC(=O)c1ccc(C(=O)N/N=C(\C)c2csc(-c3ccc4c(c3)CCC4)c2O)s1 [compound 30],18.8
27,COC(=O)c1ccc(C(=O)N/N=C(\C)c2csc(-c3ccc4c(c3)CCC4)c2O)cc1 [compound 31],52.9
28,C/C(=N\NC(=O)c1ccc(C(=O)NCc2ccncc2)s1)c1csc(-c2ccc3c(c2)CCCC3)c1O [compound 32],0.452
29,CCN(CC)C(=O)c1ccc(C(=O)N/N=C(\C)c2csc(-c3ccc4c(c3)CCCC4)c2O)s1 [compound 33],4.84
